Laboratory results: US9181258B2, “Substituted 3,4-dihydropyrrolo[1,2-a]pyrazin-1(2H)-ones as protein kinase inhibitors” (NERVIANO MEDICAL SCIENCES S.R.L., priority 2011, dated 2015)
Where a name gives a salt, the structure may show the parent alone.

Assays:
human PIM1 = human PIM1 (Homo sapiens (Human), UniProt P11309); assay: Biochemical assay for inhibitors of PIM1 kinase activity (trans-phosphorylation, Dowex technique); conditions: ATP 200 μM, Aktide 25 μM, enzyme 1 nM; read-out: PIM-1 IC50
Sequence of human PIM1 (P11309 whole entry): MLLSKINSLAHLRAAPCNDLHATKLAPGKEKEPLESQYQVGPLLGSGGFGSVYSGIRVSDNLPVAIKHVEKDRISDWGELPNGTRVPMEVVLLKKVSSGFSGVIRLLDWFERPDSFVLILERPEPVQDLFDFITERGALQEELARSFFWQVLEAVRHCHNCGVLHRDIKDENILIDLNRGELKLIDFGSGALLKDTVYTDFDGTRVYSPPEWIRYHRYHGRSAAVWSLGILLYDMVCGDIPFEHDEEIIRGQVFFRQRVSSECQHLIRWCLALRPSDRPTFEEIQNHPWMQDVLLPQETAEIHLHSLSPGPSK
Experimental: Biochemical Assay for Inhibitors of PIM1 Kinase Activity
The inhibitory activity of putative kinase inhibitors and the potency of selected compounds were determined using a trans-phosphorylation assay.
Specific peptide or protein substrates were trans-phosphorylated by their specific ser-thr or tyr kinase in the presence of ATP traced with ^33P-γ-ATP, and in the presence of their own optimal buffer and cofactors.
At the end of the phosphorylation reaction, more than 98% unlabeled ATP and radioactive ATP were captured by an excess of the ion exchange dowex resin; the resin then settled down to the bottom of the reaction plate by gravity. Supernatant was subsequently withdrawn and transferred into a counting plate, then evaluated by β-counting.
Reagents/Assay Conditions i. Dowex Resin Preparation
500 g of wet resin (SIGMA, custom prepared resin DOWEX 1×8 200-400 mesh, 2.5 Kg) were weighed out and diluted to 2 L in 150 mM sodium formate, pH 3.00.
The resin was allowed to settle down (some hours) and then the supernatant was discarded.
After three washes as above over a couple of days, the resin was allowed to settle and two volumes (wrt the resin volume) of 150 mM sodium formate buffer were added.
The pH was then measured and should have been around 3.00.
The washed resin was stable for more than one week; the stock resin was kept at 4° C. before use.
The buffer for PIM1 assay was composed of HEPES 50 mM, at pH 7.5, with 10 mM MgCl2, 1 mM DTT, 3 μM NaVO3, and 0.2 mg/mL BSA.
Full-length human PIM1 was expressed and purified as described in Bullock A N, et al., J. Biol. Chem. 2005, 280, 41675-82.
1.7 μM PIM1 was incubated 1 h at 28° C. in the presence of 125 μM ATP.
ATP concentration: 200 μM; ^33P-γ-ATP: 6 nM; Enzyme concentration: 1 nM Substrate concentration Aktide (Chemical Abstract Service Registry Number 324029-01-8): 25 μM iv. Robotized Dowex Assay
The test mix consisted of:
1) 3× Enzyme mix (done in Kinase Buffer 3×), 5 μL/well
2) 3× substrate and ATP mix (done in ddH2O), together with ^33P-γ-ATP, 5 μL/well 3) 3× test compounds (diluted into ddH2O—3% DMSO)—5 μL/well See below for compound dilution and assay scheme […]
An automated station (Biomek FX, Beckman) was used for serial dilutions, producing 1:3 dilutions in 100% DMSO, from line A1 to A10, for all the compounds in the column.
Data were analyzed by an internally customized version of the “Assay Explorer” SW package, which provided sigmoidal fitting of the ten-dilution curves for IC50 determination in secondary assay/hit confirmation routines.

human PIM2 = human PIM2 (Homo sapiens (Human), UniProt Q9P1W9); assay: PIM2 kinase inhibition assay: Dowex technique; assay type: biochemical; conditions: ATP 4 μM, Aktide 5 μM, enzyme 1.5 nM; read-out: PIM-2 IC50
Sequence of human PIM2 (Q9P1W9 whole entry): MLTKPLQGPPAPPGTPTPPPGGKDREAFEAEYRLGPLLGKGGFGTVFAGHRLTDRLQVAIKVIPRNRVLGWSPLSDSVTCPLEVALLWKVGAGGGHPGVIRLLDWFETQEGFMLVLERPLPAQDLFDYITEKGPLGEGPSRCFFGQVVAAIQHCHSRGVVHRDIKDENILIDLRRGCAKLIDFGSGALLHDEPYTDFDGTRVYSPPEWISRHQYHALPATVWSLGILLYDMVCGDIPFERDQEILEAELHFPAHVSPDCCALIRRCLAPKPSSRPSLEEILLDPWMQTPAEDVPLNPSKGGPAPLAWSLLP
Experimental: Method for PIM2 Kinase Inhibition Assay: Dowex Technique
The buffer for PIM2 assay was composed of HEPES 50 mM, at pH 7.5, with 1 mM MgCl2, 1 mM DTT, 3 μM Na3VO4, and 0.2 mg/mL BSA.
Full-length human PIM2 was expressed and purified as described in Fedorov O, et al., PNAS 2007 104, 51, 20523-28. ii. Assay Conditions (Final Concentrations)
Enzyme concentration=1.5 nM; ATP=4 μM; ^33P-γ-ATP=1 nM
Aktide substrate (Chemical Abstract Service Registry Number 324029-01-8)=5 μM iii. Robotized Dowex Assay
See above: same procedure as described for PIM1.

BaF3-PIM1 cells = assay: In vitro cell proliferation assay (CellTiter-Glo), BaF3-PIM1; assay type: cell-based; conditions: 72 hours
Experimental: In Vitro Cell Proliferation Assay
BaF3-PIM1 and MV-4-11 cells were seeded at 125 cells/well and 1250 cells/well respectively in a 384-well white plates in complete medium and treated with compounds dissolved in 0.1% DMSO, 24 h after seeding.
The cells were incubated at 37° C. and 5% CO2 and after 72 hours the plates were processed using CellTiter-Glo assay (Promega) following the manufacturer's instruction.
CellTiter-Glo was a homogenous method based on the quantification of the ATP present, an indicator of metabolitically active cells. ATP was quantified using a system based on luciferase and D-luciferin resulting into light generation. The luminescent signal was proportional to the number of cells present in culture.
Briefly 25 μl/well reagent solution were added to each wells and after 5 minutes shacking microplates were red by Envision (PerkinElmer) luminometer. The luminescent signal was proportional to the number of cells present in culture.
Inhibitory activity was evaluated comparing treated versus control data using Assay Explorer (MDL) program. IC50 was calculated using sigmoidal interpolation curve.

| Compound | IC50 (human PIM1) [nM] | IC50 (human PIM2) [nM] | IC50 (BaF3-PIM1 cells) [nM] |
| --- | --- | --- | --- |
| NC(=O)c1ccc(-c2c(-c3cccc(OC(F)(F)F)c3)cc3n2C(CCO)CNC3=O)cc1 (stereo not drawn) [Compound 77, 4-{4-(2-hydroxyethyl)-1-oxo-7-[3-(trifluoromethoxy)phenyl]-1,2,3,4-tetrahydropyrrolo[1,2-a]pyrazin-6-yl}benzamide] | 7 | 58 | 2320 |
| CN(C)CCNC(=O)c1ccc(-c2c(-c3cccc(OC(F)(F)F)c3)cc3n2C(CCO)CNC3=O)cc1 (stereo not drawn) [Compound 78, N-[2-(dimethylamino)ethyl]-4-{4-(2-hydroxyethyl)-1-oxo-7-[3-(trifluoromethoxy)phenyl]-1,2,3,4-tetrahydropyrrolo[1,2-a]pyrazin-6-yl}benzamide trifluoroacetate] | 6 | 90 | 4070 |
| NCCC1CNC(=O)c2cc(-c3cccc(C(F)(F)F)c3)c(-c3ccc(O)cc3)n21 (stereo not drawn) [Compound 43, 4-(2-aminoethyl)-6-(4-hydroxyphenyl)-7-[3-(trifluoromethyl)phenyl]-3,4-dihydropyrrolo[1,2-a]pyrazin-1(2H)-one hydrochloride] | 12 | 21 | 7000 |
| CC(C)[C@H]1CNC(=O)c2cc(-c3cccc(OC(F)(F)F)c3)c(-c3ccc(CN)cc3)n21 [Compound 138, (4S)-6-[4-(aminomethyl)phenyl]-4-(propan-2-yl)-7-[3-(trifluoromethoxy)phenyl]-3,4-dihydropyrrolo[1,2-a]pyrazin-1(2H)-one] | 12 | 173 | 276 |
| NCCC1CNC(=O)c2cc(-c3cccc(Cl)c3)c(-c3ccccc3)n21 (stereo not drawn) [Compound 17, 4-(2-aminoethyl)-7-(3-chlorophenyl)-6-phenyl-3,4-dihydropyrrolo[1,2-a]pyrazin-1(2H)-one trifluoroacetate] | 34 | 117 | 450 |
| CS(=O)(=O)c1ccc(-c2c(-c3cccc(OC(F)(F)F)c3)cc3n2[C@@H](CCNC(=N)N)CNC3=O)cc1 [Compound 149, 1-(2-{(4S)-6-[4-(methylsulfonyl)phenyl]-1-oxo-7-[3-(trifluoromethoxy)phenyl]-1,2,3,4-tetrahydropyrrolo[1,2-a]pyrazin-4-yl}ethyl)guanidine hydrochloride] | 8 | 19 | 1770 |
| NCCC1CNC(=O)c2cc(-c3cccc(OC(F)(F)F)c3)c(-c3cccc(N)c3)n21 (stereo not drawn) [Compound 32, 4-(2-aminoethyl)-6-(3-aminophenyl)-7-[3-(trifluoromethoxy)phenyl]-3,4-dihydropyrrolo[1,2-a]pyrazin-1(2H)-one hydrochloride] | 8 | 69 | 2020 |
| CNC(=O)c1ccc(-c2c(-c3cccc(OC(F)(F)F)c3)cc3n2C(CCO)CNC3=O)cc1 (stereo not drawn) [Compound 80, 4-{4-(2-hydroxyethyl)-1-oxo-7-[3-(trifluoromethoxy)phenyl]-1,2,3,4-tetrahydropyrrolo[1,2-a]pyrazin-6-yl}-N-methylbenzamide] | 20 | 75 | 3810 |
| NCC[C@H]1CNC(=O)c2cc(-c3cccc(OC(F)(F)F)c3)c(-c3ccc(C4(N)CC4)cc3)n21 [Compound 130, (4S)-6-[4-(1-aminocyclopropyl)phenyl]-4-(2-aminoethyl)-7-[3-(trifluoromethoxy)phenyl]-3,4-dihydropyrrolo[1,2-a]pyrazin-1(2H)-one hydrochloride] | 1 | 3 | 150 |
| CN(C)C(=O)c1ccc(-c2c(-c3cccc(OC(F)(F)F)c3)cc3n2C(CCO)CNC3=O)cc1 (stereo not drawn) [Compound 79, 4-{4-(2-hydroxyethyl)-1-oxo-7-[3-(trifluoromethoxy)phenyl]-1,2,3,4-tetrahydropyrrolo[1,2-a]pyrazin-6-yl}-N,N-dimethylbenzamide] | 13 | 93 | 1220 |
| Cc1cccc(-c2c(-c3cccc(OC(F)(F)F)c3)cc3n2[C@@H](CCNC(=N)N)CNC3=O)c1 [Compound 148, 1-(2-{(4S)-6-(3-methylphenyl)-1-oxo-7-[3-(trifluoromethoxy)phenyl]-1,2,3,4-tetrahydropyrrolo[1,2-a]pyrazin-4-yl}ethyl)guanidine hydrochloride] | 8 | 12 | 110 |
| CS(=O)(=O)c1ccc(-c2c(-c3cccc(OC(F)(F)F)c3)cc3n2[C@@H](CCCN)CNC3=O)cc1 [Compound 109, (4S)-4-(3-aminopropyl)-6-[4-(methylsulfonyl)phenyl]-7-[3-(trifluoromethoxy)phenyl]-3,4-dihydropyrrolo[1,2-a]pyrazin-1(2H)-one hydrochloride] | 11 | 82 | 6510 |

Next, values leading:

| IC50 (human PIM1) [nM] | IC50 (human PIM2) [nM] | IC50 (BaF3-PIM1 cells) [nM] | Compound |
| --- | --- | --- | --- |
| 11 | 69 | 6050 | CN1CCC(NC(=O)c2ccc(-c3c(-c4cccc(OC(F)(F)F)c4)cc4n3C(CCO)CNC4=O)cc2)CC1 (stereo not drawn) [Compound 81, 4-{4-(2-hydroxyethyl)-1-oxo-7-[3-(trifluoromethoxy)phenyl]-1,2,3,4-tetrahydropyrrolo[1,2-a]pyrazin-6-yl}-N-(1-methylpiperidin-4-yl)benzamide trifluoroacetate] |
| 11 | 90 | 224 | O=C1NCC(CCO)n2c1cc(-c1cccc(OC(F)(F)F)c1)c2-c1ccc(CO)cc1 (stereo not drawn) [Compound 84, 4-(2-hydroxyethyl)-6-[4-(hydroxymethyl)phenyl]-7-[3-(trifluoromethoxy)phenyl]-3,4-dihydropyrrolo[1,2-a]pyrazin-1(2H)-one] |
| 27 | 99 | 210 | CN1CCN(Cc2ccc(-c3c(-c4cccc(OC(F)(F)F)c4)cc4n3[C@@H](CCCl)CNC4=O)cc2)CC1 [Compound 106, (4S)-4-(2-chloroethyl)-6-{4-[(4-methylpiperazin-1-yl)methyl]phenyl}-7-[3-(trifluoromethoxy)phenyl]-3,4-dihydropyrrolo[1,2-a]pyrazin-1(2H)-one] |
| 16 | 109 | 6950 | NCCC[C@H]1CNC(=O)c2cc(-c3cccc(OC(F)(F)F)c3)c(-c3ccc(CO)cc3)n21 [Compound 105, (4S)-4-(3-aminopropyl)-6-[4-(hydroxymethyl)phenyl]-7-[3-(trifluoromethoxy)phenyl]-3,4-dihydropyrrolo[1,2-a]pyrazin-1(2H)-one hydrochloride] |
| 4 | 48 | 7000 | NCCC[C@H]1CNC(=O)c2cc(-c3cccc(OC(F)(F)F)c3)c(-c3ccc(O)cc3)n21 [Compound 104, (4S)-4-(3-aminopropyl)-6-(4-hydroxyphenyl)-7-[3-(trifluoromethoxy)phenyl]-3,4-dihydropyrrolo[1,2-a]pyrazin-1(2H)-one hydrochloride] |
| 4 | 15 | 598 | NCCC1CNC(=O)c2cc(-c3cccc(OC(F)(F)F)c3)c(-c3ccc(CO)cc3)n21 (stereo not drawn) [Compound 33, 4-(2-aminoethyl)-6-[4-(hydroxymethyl)phenyl]-7-[3-(trifluoromethoxy)phenyl]-3,4-dihydropyrrolo[1,2-a]pyrazin-1(2H)-one hydrochloride] |
